Consider 19 molecules from US12011444B2, “N-substituted indole derivatives as PGE2 receptor modulators” (Idorsia Pharmaceuticals Ltd, priority 2015, dated 2024).

In one assay the target is EP4 (Homo sapiens (Human), UniProt P35408). The assay can be described thus: hEP4 cAMP assay (BT549 breast cancer cells, HTRF cAMP). The class given is cell-based. Particulars: antagonistic activity; mean values where measured multiple times. Here is the method:
Plate is pre-incubated 45 minutes at room temperature. Subsequently, 2.5 microliters of PGE2 (final conc. 6 nM) are transferred into the assay plate. Plate is incubated 30 minutes at room temperature.

For the next assay, the target named is EP2 (Homo sapiens (Human), UniProt P43116).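 Note: antagonism of PGE2-stimulated cAMP accumulation in SF295 human glioblastoma cells with endogenous EP2, cAMP read by HTRF, expressed relative to DMSO control.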
Chain of EP2 (P43116 whole entry): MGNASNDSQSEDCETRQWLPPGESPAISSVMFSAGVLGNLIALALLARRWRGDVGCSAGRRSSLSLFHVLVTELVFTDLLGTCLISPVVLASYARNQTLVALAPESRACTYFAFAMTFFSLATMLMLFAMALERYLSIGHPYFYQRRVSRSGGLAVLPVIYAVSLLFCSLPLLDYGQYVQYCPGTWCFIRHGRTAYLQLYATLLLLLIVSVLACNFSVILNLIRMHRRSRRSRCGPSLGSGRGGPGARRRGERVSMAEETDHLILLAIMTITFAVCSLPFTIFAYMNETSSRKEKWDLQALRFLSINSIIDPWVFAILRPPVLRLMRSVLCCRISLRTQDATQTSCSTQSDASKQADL

The structures appear in SMILES notation.

Chain of EP4 (P35408 whole entry): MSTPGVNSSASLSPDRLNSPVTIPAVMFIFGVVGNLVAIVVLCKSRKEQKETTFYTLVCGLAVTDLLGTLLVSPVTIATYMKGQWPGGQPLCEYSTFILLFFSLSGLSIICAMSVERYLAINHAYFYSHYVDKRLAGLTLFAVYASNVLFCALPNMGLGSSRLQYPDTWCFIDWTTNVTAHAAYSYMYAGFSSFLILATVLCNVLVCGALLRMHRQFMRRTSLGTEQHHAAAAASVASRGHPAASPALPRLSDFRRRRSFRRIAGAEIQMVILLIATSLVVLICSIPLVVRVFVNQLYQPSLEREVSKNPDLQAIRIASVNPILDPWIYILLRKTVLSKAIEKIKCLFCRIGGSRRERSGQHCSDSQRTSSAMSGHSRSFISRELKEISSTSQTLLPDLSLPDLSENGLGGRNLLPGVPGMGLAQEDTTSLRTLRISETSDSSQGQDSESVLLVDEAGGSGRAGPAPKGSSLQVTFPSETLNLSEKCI
Source text for EP2: Human tumor cell lines expressing endogenously either EP4 or EP2 are used and cAMP accumulation in cells upon PGE2 stimulation is monitored. SF295 glioblastoma cells express high endogenous EP2 and no EP4, whereas BT549 breast cancer cells, express high endogenous EP4 levels and very low EP2 levels.
As a detection method for cAMP the HTRF (homogeneous time resolved fluorescence) Cisbio kit (HTRF cAMP dynamic 2 kit 20′000 tests Cisbio Cat. #62AM4PEC) was used, which is based on a competitive immunoassay using a Cryptate-labeled anti-cAMP antibody and d2-labeled cAMP. Native cAMP produced by cells or unlabeled cAMP (for the standard curve) compete with exogenously added d2-labeled cAMP (acceptor) for binding to monoclonal anti-cAMP-Eu3+Cryptate (donor). A FRET signal (Fluorescence Resonance Energy Transfer) is obtained only if the labeled anti-cAMP antibody binds the d2 labelled cAMP, thus the specific signal (i.e. energy transfer) is inversely proportional to the concentration of cAMP in the standard or sample.
The SF295 cells (NCI/No. 0503170) are detached from culture dishes with a cell dissociation buffer (Invitrogen, 13151-014), and collected in growing medium (GM: RPM11640 (Invitrogen 21875)/10% FCS, 1% Penicilin/streptomycin). Cells are counted washed and resuspended in assay buffer (AB; HBSS, 20 mM HEPES, 0.2% BSA; 2 mM IBMX). 4,000 cells in 5 μl of AB are seeded per well of a small volume 384 well plate (black with flat bottom, Greiner 784076).
PGE2 (Cayman 14010, stock solution: 75 μM in DMSO) is used as agonist at 75 nM final concentration, corresponding to EC80.
Two point five microliters of diluted compounds are transferred into the assay plate. Plate is pre-incubated 45 minutes at room temperature. Subsequently, 2.5 microliters of PGE2 (final conc. 75 nM) are transferred into the assay plate. Plate is incubated 30 minutes at room temperature. Five μl of each donor (anti-cAMP cryptate) and acceptor (cAMP-d2) are added and the plate is incubated another hour at room temperature in the dark and then read using a BMG LABTECH PHERAstar reader (Excitation: 337 nm, Emission: 620 and 665 nm).
The obtained Delta F (fluorescence) values (665 nm/620 nM) are converted into % cAMP values using the measurements of the cAMP calibrator provided in the kit. For each compound concentration the percentage of cAMP compared to DMSO control value as average±STDEV (each concentration is measured in duplicate) is calculated.
IC50 values and curves are generated with XLfit software (IDBS) using Dose-Response One Site model 203. When compounds were measured multiple times, mean values are given.

On to `CCOc1cc(-c2cc(NCCn3c(C)cc4cc(C)cc(F)c43)ncn2)cc(F)c1C(=O)O` [compound 436], for which the IC50 (commonly the midpoint of a concentration-inhibition curve) is 787 nM at EP4 and 46 nM against EP2.
Turning to `CCc1cc(-c2cc(NCCn3c(C)cc4c(OC)ccc(F)c43)ncn2)cc(F)c1C(=O)O` [compound 437], the half-inhibitory concentration (IC50) turned out to be 201 nM at EP4 and 15 nM on EP2.
The matching figures for `CCc1cc(-c2cc(NCCn3c(C)cc4c(OC)cc(F)cc43)ncn2)cc(Cl)c1C(=O)O` [compound 438]: 106 nM and 64 nM.
The like results for `CCCOc1cc(-c2cc(NCCn3c(C)cc4c(C)cc(F)cc43)ncn2)ccc1C(=O)O` [compound 439] were, in that order, 272 nM and 19 nM.
The matching figures for `CCOc1cc(-c2cc(NCCn3c(C)cc4c(C)cc(F)cc43)nc(C)n2)ccc1C(=O)O` [compound 440]: 905 nM and 57 nM.
Turning to `CCCOc1cc(-c2cc(NCCn3c(C)cc4c(C)ccc(F)c43)ncn2)ccc1C(=O)O` [compound 441], the 50% inhibitory concentration (IC50) against EP4 turned out to be 113 nM; against EP2, 11 nM.
`CCCc1cc(-c2cc(NCCn3c(C)cc4c(OC)ccc(Cl)c43)ncn2)ccc1C(=O)O` [compound 442]: the IC50 at EP4 was 234 nM; against EP2 it was 12 nM.
On to `CCCc1cc(-c2cc(NCCn3c(C)cc4cc(OC)cc(F)c43)ncn2)ccc1C(=O)O` [compound 443], for which the results for the half-inhibitory concentration (IC50) at EP4 and against EP2 were 487 nM and 175 nM, respectively.
The matching figures for `CCCc1cc(-c2cc(NCCn3c(C)cc4c(OC)cccc43)ncn2)cc(Cl)c1C(=O)O` [compound 444]: 94 nM and 7 nM.
The like results for `CCCc1cc(-c2cc(NCCn3c(C)cc4c(OC)cccc43)ncn2)cc(F)c1C(=O)O` [compound 445] were, in that order, 235 nM and 5 nM.
The matching figures for `COc1ccc(F)c2c1cc(C)n2CCNc1cc(-c2cc(C(F)(F)F)c(C(=O)O)s2)ncn1` [compound 446]: 8 nM and 16 nM.
`COc1cc(F)cc2c1cc(C)n2CCNc1cc(-c2cc(C(F)(F)F)c(C(=O)O)s2)ncn1` [compound 447]: the figures for the IC50 against EP4 and on EP2 were 27 nM and 28 nM, respectively.
Regarding `COc1c(F)cc(Cl)c2c1cc(C)n2CCNc1cc(-c2ccc(C(=O)O)c(SC)c2)ncn1` [compound 448], the 50% inhibitory concentration (IC50) on EP4 is 508 nM; at EP2, 46 nM.
The matching figures for `CCOc1cc(-c2cc(NCCn3c(C)cc4c(F)c(F)cc(F)c43)ncn2)ccc1C(=O)O` [compound 449]: 242 nM and 4 nM.
In the case of `CCOc1cc(-c2cc(NCCn3c(C)cc4c(Cl)ccc(F)c43)ncn2)cc(Cl)c1C(=O)O` [compound 450], the IC50 against EP4 is 117 nM; at EP2, 9 nM.
`CCNc1cc(-c2cc(NCCn3c(C)cc4c(C#N)ccc(F)c43)ncn2)ccc1C(=O)O` [compound 451]: the half-maximal inhibitory concentration (IC50) stood at 240 nM on EP4 and 2 nM on EP2.
On to `Cc1ccc(Cl)c2c1cc(C)n2CCNc1cc(-c2ccc(C(=O)O)c(SC3CCC3)c2)ncn1` [compound 452, 4-{6-[2-(7-Chloro-2,4-dimethyl-indol-1-yl)-ethylamino]-pyrimidin-4-yl}-2-cyclobutylsulfanyl-benzoic acid], for which the 50% inhibitory concentration (IC50) is 468 nM against EP4 and 34 nM on EP2.
The matching figures for `Cc1cc2c(Cl)ccc(Cl)c2n1CCNc1cc(-c2ccc(C(=O)O)c(SC3CCC3)c2)ncn1` [compound 453, 2-Cyclobutylsulfanyl-4-{6-[2-(4,7-dichloro-2-methyl-indol-1-yl)-ethylamino]-pyrimidin-4-yl}-benzoic acid]: 904 nM and 31 nM.
Turning to `CCOc1cc(-c2cc(NCCn3c(C)cc4c5c(cc(Cl)c43)OCO5)ncn2)ccc1C(=O)O` [compound 454, 4-{6-[2-(5-Chloro-7-methyl-[1,3]dioxolo[4,5-e]indol-6-yl)-ethylamino]-pyrimidin-4-yl}-2-ethoxy-benzoic acid], the IC50 came out at 445 nM at EP4 and 14 nM on EP2.
